In the SangsterLogP compilation:

SMILES	logP
Clc1cc(Cl)cc(-c2c(Cl)cc(Cl)cc2Cl)c1	6.43
Clc1cc(-c2c(Cl)cc(Cl)c(Cl)c2Cl)c(Cl)c(Cl)c1Cl	7.43
Clc1ccc(-c2c(Cl)cccc2Cl)c(Cl)c1Cl	5.6
Clc1ccc(-c2ccccc2Cl)cc1	5.09
Clc1cccc(-c2cc(Cl)cc(Cl)c2)c1	5.81
Clc1ccc(-c2c(Cl)c(Cl)c(Cl)c(Cl)c2Cl)c(Cl)c1	7.13
Clc1ccc(-c2ccccc2)c(Cl)c1Cl	5.68
Clc1cccc(-c2cccc(Cl)c2Cl)c1Cl	5.67
Clc1ccc(-c2c(Cl)cc(Cl)c(Cl)c2Cl)cc1	6.44
Clc1ccc(-c2ccccc2Cl)cc1Cl	5.71
Clc1ccc(Cl)c(-c2c(Cl)cc(Cl)c(Cl)c2Cl)c1	6.45
Clc1ccc(Cl)c(-c2c(Cl)c(Cl)c(Cl)c(Cl)c2Cl)c1Cl	7.21
Clc1ccc(-c2cc(Cl)cc(Cl)c2Cl)cc1	6.1
Clc1cc(Cl)cc(-c2ccccc2)c1	5.41
Clc1cc(Cl)cc(-c2c(Cl)c(Cl)c(Cl)c(Cl)c2Cl)c1	7.21
Clc1ccccc1-c1c(Cl)ccc(Cl)c1Cl	4.84
Clc1cc(-c2c(Cl)c(Cl)c(Cl)c(Cl)c2Cl)cc(Cl)c1Cl	7.62
Clc1ccccc1-c1cc(Cl)c(Cl)c(Cl)c1	5.98
Clc1cc(Cl)c(-c2cc(Cl)c(Cl)c(Cl)c2Cl)c(Cl)c1	6.92
Clc1cc(-c2c(Cl)c(Cl)c(Cl)c(Cl)c2Cl)c(Cl)c(Cl)c1Cl	7.94
Clc1cc(Cl)c(Cl)c(-c2c(Cl)c(Cl)c(Cl)c(Cl)c2Cl)c1	7.43
Clc1cccc(-c2cc(Cl)c(Cl)c(Cl)c2Cl)c1	6.92
Clc1cc(Cl)c(Cl)c(-c2cc(Cl)c(Cl)c(Cl)c2Cl)c1	7.21
Clc1ccc(-c2c(Cl)c(Cl)cc(Cl)c2Cl)c(Cl)c1Cl	6.73
Clc1cc(Cl)c(Cl)c(-c2c(Cl)c(Cl)c(Cl)c(Cl)c2Cl)c1Cl	7.77
Clc1ccccc1-c1c(Cl)cccc1Cl	5.04

SMILES	logP
Clc1ccc(Cl)c(-c2ccccc2)c1Cl	5.44
Clc1ccc(-c2cccc(Cl)c2Cl)cc1Cl	5.85
Clc1cc(Cl)c(-c2c(Cl)c(Cl)c(Cl)c(Cl)c2Cl)c(Cl)c1	7.48
Clc1ccc(-c2ccccc2Cl)c(Cl)c1	5.39
Clc1cc(Cl)c(-c2c(Cl)c(Cl)cc(Cl)c2Cl)cc1Cl	6.92
Clc1cccc(-c2c(Cl)cc(Cl)cc2Cl)c1	6.03
Clc1ccc(-c2ccc(Cl)c(Cl)c2)cc1	5.78
Clc1cccc(-c2ccc(Cl)cc2Cl)c1	5.54
Clc1cc(Cl)c(-c2cc(Cl)ccc2Cl)c(Cl)c1	6.11
Clc1ccc(-c2ccc(Cl)cc2)cc1	5.23
Clc1cc(-c2c(Cl)cc(Cl)c(Cl)c2Cl)cc(Cl)c1Cl	7.21
Clc1cc(Cl)c(Cl)c(-c2c(Cl)cc(Cl)c(Cl)c2Cl)c1	6.92
Clc1ccccc1-c1ccc(Cl)c(Cl)c1Cl	5.79
Clc1ccc(Cl)c(-c2cc(Cl)c(Cl)cc2Cl)c1	6.3
Clc1ccc(Cl)c(-c2c(Cl)cccc2Cl)c1	5.55
Clc1ccc(Cl)c(-c2c(Cl)c(Cl)c(Cl)c(Cl)c2Cl)c1	6.99
Clc1cc(Cl)cc(-c2cc(Cl)cc(Cl)c2)c1	6.6
Clc1ccc(-c2c(Cl)c(Cl)cc(Cl)c2Cl)cc1	6.39
Clc1ccc(-c2ccc(Cl)c(Cl)c2)c(Cl)c1	5.98
Clc1cc(-c2c(Cl)ccc(Cl)c2Cl)cc(Cl)c1Cl	6.63
Clc1cc(Cl)c(-c2c(Cl)c(Cl)c(Cl)c(Cl)c2Cl)cc1Cl	7.49
Clc1ccc(-c2c(Cl)cccc2Cl)cc1	5.24
Clc1ccc(-c2ccccc2)c(Cl)c1	5.16
Clc1ccc(-c2ccc(Cl)c(Cl)c2Cl)c(Cl)c1	6.18
Clc1cccc(-c2cc(Cl)c(Cl)c(Cl)c2Cl)c1Cl	6.76
Clc1cc(Cl)c(-c2c(Cl)cc(Cl)c(Cl)c2Cl)c(Cl)c1Cl	7.21

SMILES	logP
Clc1ccc(-c2c(Cl)cccc2Cl)cc1Cl	5.76
Clc1cccc(-c2c(Cl)c(Cl)cc(Cl)c2Cl)c1	6.41
Clc1cccc(-c2ccccc2)c1Cl	4.99
Clc1cc(Cl)c(-c2c(Cl)c(Cl)cc(Cl)c2Cl)c(Cl)c1	6.78
Clc1ccc(Cl)c(-c2cc(Cl)cc(Cl)c2Cl)c1	6.32
Clc1cc(Cl)cc(-c2ccccc2Cl)c1	5.71
Clc1ccc(Cl)c(-c2c(Cl)c(Cl)cc(Cl)c2Cl)c1Cl	6.41
Clc1ccc(-c2ccc(Cl)cc2Cl)c(Cl)c1	5.94
Clc1ccc(-c2ccccc2)cc1	4.63
Clc1ccc(Cl)c(-c2ccccc2)c1	5.1
Clc1cc(Cl)c(-c2cccc(Cl)c2Cl)c(Cl)c1	6.04
Clc1ccc(-c2c(Cl)c(Cl)c(Cl)c(Cl)c2Cl)c(Cl)c1Cl	7.35
Clc1cc(Cl)c(Cl)c(-c2c(Cl)c(Cl)cc(Cl)c2Cl)c1	6.85
Clc1ccc(-c2cccc(Cl)c2)cc1	5.15
Clc1cc(Cl)c(-c2ccccc2Cl)c(Cl)c1	5.75
Clc1cc(Cl)c(-c2c(Cl)cc(Cl)c(Cl)c2Cl)cc1Cl	7.05
Clc1cccc(-c2cc(Cl)c(Cl)cc2Cl)c1	6.32
Clc1ccc(Cl)c(-c2cc(Cl)c(Cl)c(Cl)c2Cl)c1	6.75
Clc1cc(-c2c(Cl)c(Cl)cc(Cl)c2Cl)cc(Cl)c1Cl	7.21
Clc1ccccc1-c1cc(Cl)c(Cl)c(Cl)c1Cl	6.39
Clc1cc(Cl)c(-c2ccccc2Cl)cc1Cl	5.69
Clc1cc(-c2c(Cl)ccc(Cl)c2Cl)c(Cl)c(Cl)c1Cl	6.85
Clc1ccc(-c2c(Cl)cc(Cl)c(Cl)c2Cl)c(Cl)c1Cl	6.99
Clc1ccc(-c2c(Cl)cccc2Cl)c(Cl)c1	5.51
Clc1cc(Cl)c(-c2ccc(Cl)c(Cl)c2Cl)cc1Cl	6.72
Clc1cc(Cl)c(Cl)c(-c2c(Cl)c(Cl)cc(Cl)c2Cl)c1Cl	7.16

SMILES	logP
Clc1cccc(-c2cccc(Cl)c2)c1	5.27
Clc1ccc(-c2c(Cl)ccc(Cl)c2Cl)cc1	5.76
Clc1ccccc1-c1ccccc1	4.42
Clc1ccc(-c2cc(Cl)ccc2Cl)c(Cl)c1	5.87
Clc1cccc(Cl)c1-c1c(Cl)cccc1Cl	5.24
Clc1cccc(-c2cc(Cl)ccc2Cl)c1	5.65
Clc1ccc(-c2cc(Cl)c(Cl)cc2Cl)cc1	6.1
Clc1ccccc1-c1c(Cl)c(Cl)cc(Cl)c1Cl	6.06
Clc1cc(-c2cc(Cl)c(Cl)c(Cl)c2Cl)c(Cl)c(Cl)c1Cl	7.62
Clc1ccc(Cl)c(-c2ccccc2Cl)c1	5.34
Clc1ccc(-c2c(Cl)c(Cl)cc(Cl)c2Cl)cc1Cl	6.78
Clc1cc(-c2c(Cl)c(Cl)cc(Cl)c2Cl)c(Cl)c(Cl)c1Cl	7.35
Clc1ccc(-c2c(Cl)cc(Cl)cc2Cl)cc1	6.03
Clc1cc(Cl)c(-c2ccc(Cl)c(Cl)c2)c(Cl)c1	6.4
Clc1cc(Cl)c(-c2ccc(Cl)c(Cl)c2Cl)c(Cl)c1	6.58
Clc1ccc(-c2cccc(Cl)c2Cl)c(Cl)c1	5.72
Clc1cccc(-c2c(Cl)cccc2Cl)c1Cl	4.84
Clc1ccc(-c2c(Cl)c(Cl)c(Cl)c(Cl)c2Cl)cc1Cl	7.08
Clc1ccc(Cl)c(-c2ccc(Cl)c(Cl)c2Cl)c1	6.23
Clc1ccc(-c2cc(Cl)cc(Cl)c2Cl)c(Cl)c1	6.32
Clc1ccc(-c2cc(Cl)c(Cl)cc2Cl)c(Cl)c1	6.41
Clc1cc(Cl)cc(-c2c(Cl)ccc(Cl)c2Cl)c1	6.45
Clc1ccc(-c2c(Cl)cc(Cl)cc2Cl)c(Cl)c1	6.23
Clc1ccc(-c2c(Cl)cc(Cl)c(Cl)c2Cl)cc1Cl	6.78
